In test [1] the target is T1, Pin1 (Homo sapiens, UniProt Q13526). Put plainly: Binding of peptides to 15N-labeled Pin1 by 2D 1H-15N HSQC NMR titration. More on the design: decahistidine (10His) (N); made in house; own knowledge. The following applies: 0.1 mM 15N-labeled Pin1, 90% H2O/10% D2O, 20 mM phosphate pH 7.0, 20 mM NaCl, 1 mM DTT, 0.01% NaN3, 300 K; HSQC chemical shift change vs ligand/protein ratio. As for the experimental part: NMR data were acquired at 300 K on a Bruker Avance 600 equipped with a cryoprobe accessory. The NMR samples contained 0.1 mM ^15N-labeled Pin 1 in 90% H2O/10% D2O in 20 mM phosphate buffer, pH 7.0, 20 mM NaCl, 1 mM DTT, 0.01% NaN3. Chemical shift perturbations were monitored with 2D ^1H-^15N heteronuclear single quantum correlation spectroscopy (HSQC) upon addition of peptides. NMR spectra were processed using Bruker Topspin1.3. For the dissociation constant determination, lyophilized aliquots of peptides were mixed with ^15N-labeled Pin1 with different molar ratios and 2D ^15N HSQC was recorded. The dissociation constant, KD is expressed as [P]*[L]/[PL] and calculated as previously described, [21], [22].
Figure 3 Pin 1 binds to the phosphopeptide derived from the flexible loop of Bcl-2. The ^15N-labeled Pin1 (0.1 mM) was recorded with (A) 0.8 mM S87 and (B) phosphorylated S87 (pS87). The ^1H-^15N-HSQC spectra with or without peptide are show in blue and red, respectively. (C, D) Some of the amino acid chemical shifts change with the increasing peptide concentration. The arrows show the direction of chemical shift perturbations with an increasing concentration of ligand. (E, F) The relationship between chemical shift change and the ratio between ligand and protein was drawn. Values of KD were calculated from the graphs using the equation described in “Materials and methods”.

The target of test [2] is T1, Pin1. Put plainly: 1H-15N HSQC titration of 15N-Pin1. The conditions noted are these: reference: unphosphorylated S87 peptide; sites S87.
In test [3] the target is T1, Pin1. Nature of the test: 1H-15N HSQC of 15N-Pin1 with peptide.
For test [4], the system named is JNK. Nature of the test: Phosphorylation of Bcl-2 proteins by JNK (γ-32P-ATP, autoradiography). Type of test: biochemical. The conditions noted are these: Bcl-2 6 µM, JNK 0.5 µM, 1 h at 30°C, pH 7.5, γ-32P-ATP, SDS-PAGE. Here is the method: (§1) For the phosphorylation of Bcl-2 by JNK, the purified Bcl-2 (6 µM) was incubated with 0.5 µM JNK for 1 h at 30°C in a buffer containing 10 mM Tris-HCl pH 7.5, 25 mM MgCl2, 1 mM EGTA, 1 mM ATP, 1 µCi γ-^32P-ATP, and 250 µM PMSF. For the phosphorylation of Bcl-2 by ERK2, ERK2 was incubated with purified Bcl-2 in a buffer containing 50 mM Tris-HCl, 10 mM MgCl2, 2 mM dithiothreitol (DTT), 1 mM EGTA, and 0.01% Brij 35 detergent, pH 7.5. The samples were separated on 12.5% gels by SDS-PAGE and visualized using autoradiography.
(§2) Supplementary file pone.0052047.s001.tif: Figure S1 Phosphorylation of Bcl-2 in the loop domain by ERK2 and JNK. (A–B) Different peptides (200 µM) were added into the reaction mixture with either (A) JNK (10 µM) or (B) ERK2 (10 µM). After reaction at 30°C for 1 h, the samples were heated at 90°C to inactivate the kinase and loaded onto C-18 column for reverse phase-HPLC analysis. (C) Point mutations of Bcl-2 (T56A and S87A) were used for the kinase reaction as described in “Materials and methods”, and the phosphorylation reactions were analyzed by using γ-^32P-ATP and followed by autoradiography. […] (E) The wild-type Bcl-2 and the flexible loop-deletion Bcl-2 mutant Bcl-2, Δ(V35–V89):6A were subject to the phosphorylation reactions by ERK2 and JNK. 1, Bcl-2 with ERK2; 2, Bcl-2Δ(V35–V89):6A with ERK2; 3, Bcl-2 with JNK; 4, Bcl-2Δ(V35–V89):6A with JNK. […]

Test [5] has as its system ERK2. Nature of the test: Phosphorylation of Bcl-2 proteins by ERK2 (γ-32P-ATP, autoradiography). Type of test: biochemical. The following applies: 50 mM Tris-HCl, 10 mM MgCl2, 2 mM DTT, 1 mM EGTA, 0.01% Brij 35, pH 7.5, SDS-PAGE. As for the experimental part: as §1, §2
In test [6] the test system is ERK2. Nature of the test: Phosphorylation of Bcl-2 loop peptides by ERK2 (HPLC). The class given is biochemical. The conditions noted are these: peptide 200 µM, ERK2 10 µM, 50 mM Tris-HCl, 10 mM MgCl2, 2 mM DTT, 1 mM EGTA, 0.01% Brij 35, pH 7.5, 30°C, 1 h; C-18 HPLC, 225 nm. Here is the method: as §1
(§3) The loop peptides (200 µM) were mixed with JNK or ERK2 (10 µM) in the reaction buffer as described above in the “Phosphorylation of Bcl-2”. The reaction was performed at 30°C for 1 h. The samples were passed through a Ni^2+-NTA column to remove kinases fused with the histidine-tag, and the flow-through samples were combined and loaded on a C-18 column for HPLC analysis. The samples (20 µl) were injected into the C-18 column with a flow rate of 1 ml/min. The peptide was eluted with a linear gradient of acetonitrile from 0 to 30%, and the peptide peaks were detected at 225 nm.
(§4) Supplementary file pone.0052047.s001.tif: Figure S1 Phosphorylation of Bcl-2 in the loop domain by ERK2 and JNK. (A–B) Different peptides (200 µM) were added into the reaction mixture with either (A) JNK (10 µM) or (B) ERK2 (10 µM). After reaction at 30°C for 1 h, the samples were heated at 90°C to inactivate the kinase and loaded onto C-18 column for reverse phase-HPLC analysis. (C) Point mutations of Bcl-2 (T56A and S87A) were used for the kinase reaction as described in “Materials and methods”, and the phosphorylation reactions were analyzed by using γ-^32P-ATP and followed by autoradiography. […] (E) The wild-type Bcl-2 and the flexible loop-deletion Bcl-2 mutant Bcl-2, Δ(V35–V89):6A were subject to the phosphorylation reactions by ERK2 and JNK. 1, Bcl-2 with ERK2; 2, Bcl-2Δ(V35–V89):6A with ERK2; 3, Bcl-2 with JNK; 4, Bcl-2Δ(V35–V89):6A with JNK. (TIF) Click here for additional data file.

The subject of test [7] is JNK. Put plainly: Phosphorylation of Bcl-2 loop peptides by JNK (HPLC). The following applies: peptide 200 µM, JNK 10 µM, 10 mM Tris-HCl pH 7.5, 25 mM MgCl2, 1 mM EGTA, 1 mM ATP, 30°C, 1 h; C-18 HPLC, 225 nm. Type of test: biochemical. As for the experimental part: as §1, §3, §4

Experimental findings from PMC3525568, “The Natively Disordered Loop of Bcl-2 Undergoes Phosphorylation-Dependent Conformational Change and Interacts with Pin1” (PLoS ONE, 2012) are described below.

Where a SMILES comes first, the peptide text is derived from it. [ ]: non-standard residue; d: D form. pS = N[C@@H](COP(=O)(O)O)C(=O)O

As a reminder, the Kd is the constant that tells how readily two partners part at equilibrium. For `CC(C)C[C@H](NC(=O)[C@H](C)NC(=O)[C@@H]1CCCN1C(=O)CN)C(=O)N[C@@H](COP(=O)(O)O)C(=O)N1CCC[C@H]1C(=O)N[C@H](C(=O)N1CCC[C@H]1C(=O)N1CCC[C@H]1C(=O)N[C@H](C(=O)O)C(C)C)C(C)C` [pS87] (H-GPAL[pS]PVPPV-OH), on Pin1 [1], the Kd was ~140 µM. Take “Bcl-2 (from UniProt P10415) pS87 peptide”: the “binding against the reference” value in the test with Pin1 [2] was “gained; reference no interaction”. Take “Bcl-2 (from UniProt P10415) pT56 peptide”: the “binding against the reference” value with Pin1 [3] (reference: unphosphorylated T56 peptide, sites T56) is on record as “gained”.

As to “Bcl-2 (from UniProt P10415) pT74 peptide”, the “binding against the reference” value with Pin1 [3] (reference: unphosphorylated T74 peptide, sites T74) is listed as “gained”. Regarding “Bcl-2/S87A: single mutant form of Bcl-2 protein”, the “JNK-mediated phosphorylation of Bcl-2 protein” value in the test on JNK [4] is listed as “affected”. For the same compound, in the test on ERK2 [5], the “ERK2-mediated phosphorylation of Bcl-2 protein” value is “affected”. In the case of “Bcl-2/T56A: single mutant form of Bcl-2 protein”, in the test with JNK [4], the “JNK-mediated phosphorylation of Bcl-2 protein” value was “abolished”. For “GPALSPVPPV [S87, synthetic peptide derived from the Bcl-2 loop covering S87]”, the “degree of phosphorylation by ERK2” value in the test with ERK2 [6] is recorded as “preferred phosphorylation”. Also, the “degree of phosphorylation by JNK” value with JNK [7] is “preferred phosphorylation”. Consider “PLQTPAAPGA [T74, synthetic peptide derived from the Bcl-2 loop covering T74]”, for which the “degree of phosphorylation by ERK2” value in the test with ERK2 [6] is on record as “poorly phosphorylated”. In the test with JNK [7], the “degree of phosphorylation by JNK” value is listed as “poorly phosphorylated”. For “PVARTSPLQT [S70, synthetic peptide derived from the Bcl-2 loop covering S70]”, the “degree of phosphorylation by ERK2” value in the test on ERK2 [6] is “poorly phosphorylated”. Besides, the “degree of phosphorylation by JNK” value in the test with JNK [7] is “poorly phosphorylated”.

With “QPGHTPHPAA [T56, synthetic peptide derived from the Bcl-2 loop covering T56]”, the “degree of phosphorylation by ERK2” value in the test with ERK2 [6] is given as “able to phosphorylate the T56 peptide to a similar level”. Also, the “degree of phosphorylation by JNK” value with JNK [7] was “able to phosphorylate the T56 peptide to a similar level”.
